According to ChEMBL document CHEMBL1201862, “PubChem BioAssay data set” (2004):
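Test compounds were applied to cells in 96-well plates for 48 hours at 5 doses. At the GI50, growth is halved.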 Active and inactive are the calls of the source. Rule as the data show it: active = GI50 up to about 1.1 µM and inactive = higher.

Columns and labels:
Assay in all cases: NCI-60 cell line screen, 48 h
786-0 = tested on: 786-0
A498 = tested on: A498
A549 = tested on: A549
ACHN = tested on: ACHN
BT-549 = tested on: BT-549
CAKI-1 = tested on: CAKI-1
CCRF-CEM = tested on: CCRF-CEM
COLO 205 = tested on: COLO 205
DU-145 = tested on: DU-145
EKVX = tested on: EKVX
HCC 2998 = tested on: HCC 2998
HCT-116 = tested on: HCT-116
HCT-15 = tested on: HCT-15
HL-60 = tested on: HL-60
HOP-62 = tested on: HOP-62
HOP-92 = tested on: HOP-92
HT-29 = tested on: HT-29
Hs-578T = tested on: Hs-578T
IGROV-1 = tested on: IGROV-1
K562 = tested on: K562
KM12 = tested on: KM12
M14 = tested on: M14
MCF7 = tested on: MCF7
MDA-MB-231 = tested on: MDA-MB-231
MDA-MB-435 = tested on: MDA-MB-435
MDA-N = tested on: MDA-N
MOLT-4 = tested on: MOLT-4
Malme-3M = tested on: Malme-3M
NCI-H226 = tested on: NCI-H226
NCI-H23 = tested on: NCI-H23
NCI-H460 = tested on: NCI-H460
NCI-H522 = tested on: NCI-H522
NCI/ADR-RES = tested on: NCI/ADR-RES
OVCAR-3 = tested on: OVCAR-3
OVCAR-4 = tested on: OVCAR-4
OVCAR-5 = tested on: OVCAR-5
OVCAR-8 = tested on: OVCAR-8
PC-3 = tested on: PC-3
RPMI-8226 = tested on: RPMI-8226
RXF 393 = tested on: RXF 393
SF-268 = tested on: SF-268
SF-295 = tested on: SF-295
SF-539 = tested on: SF-539
SK-MEL-28 = tested on: SK-MEL-28
SK-MEL-2 = tested on: SK-MEL-2
SK-MEL-5 = tested on: SK-MEL-5
SK-OV-3 = tested on: SK-OV-3
SN12C = tested on: SN12C
SNB-19 = tested on: SNB-19
SR = tested on: SR
T47D = tested on: T47D
TK-10 = tested on: TK-10
U-251 = tested on: U-251
UACC-257 = tested on: UACC-257
UACC-62 = tested on: UACC-62
UO-31 = tested on: UO-31
LOX IMVI = tested on: LOX IMVI
SNB-75 = tested on: SNB-75
SW-620 = tested on: SW-620

SMILES: Cc1ccc(-c2cc(N)n(-c3nc4c(c(=O)n(C)c(=O)n4C)n3C)n2)cc1
- GI50 (786-0): 42.2 µM (inactive)
- GI50 (A498): > 100 µM (inactive)
- GI50 (A549): > 100 µM (inactive)
- GI50 (ACHN): > 100 µM (inactive)
- GI50 (BT-549): > 100 µM (inactive)
- GI50 (CAKI-1): > 100 µM (inactive)
- GI50 (CCRF-CEM): > 100 µM (inactive)
- GI50 (COLO 205): > 100 µM (inactive)
- GI50 (DU-145): > 100 µM (inactive)
- GI50 (EKVX): 62.2 µM (inactive)
- GI50 (HCC 2998): > 100 µM (inactive)
- GI50 (HCT-116): > 100 µM (inactive)
- GI50 (HCT-15): > 100 µM
- GI50 (HL-60): > 100 µM (inactive)
- GI50 (HOP-62): 21.7 µM (inactive)
- GI50 (HOP-92): > 100 µM (inactive)
- GI50 (HT-29): > 100 µM (inactive)
- GI50 (Hs-578T): 60.1 µM (inactive)
- GI50 (IGROV-1): > 100 µM (inactive)
- GI50 (K562): > 100 µM (inactive)
- GI50 (KM12): > 100 µM (inactive)
- GI50 (M14): > 100 µM (inactive)
- GI50 (MCF7): > 100 µM (inactive)
- GI50 (MDA-MB-231): > 100 µM (inactive)
- GI50 (MDA-MB-435): > 100 µM (inactive)
- GI50 (MDA-N): > 100 µM (inactive)
- GI50 (MOLT-4): > 100 µM (inactive)
- GI50 (Malme-3M): 45.6 µM (inactive)
- GI50 (NCI-H226): 86.1 µM (inactive)
- GI50 (NCI-H23): 67 µM (inactive)
- GI50 (NCI-H460): > 100 µM (inactive)
- GI50 (NCI-H522): 86.5 µM (inactive)
- GI50 (NCI/ADR-RES): 95.1 µM (inactive)
- GI50 (OVCAR-3): > 100 µM (inactive)
- GI50 (OVCAR-4): 42.5 µM (inactive)
- GI50 (OVCAR-5): > 100 µM (inactive)
- GI50 (OVCAR-8): > 100 µM (inactive)
- GI50 (PC-3): > 100 µM (inactive)
- GI50 (RPMI-8226): > 100 µM (inactive)
- GI50 (RXF 393): > 100 µM (inactive)
- GI50 (SF-268): 43.7 µM (inactive)
- GI50 (SF-295): 62.7 µM (inactive)
- GI50 (SF-539): 45.8 µM (inactive)
- GI50 (SK-MEL-28): 23.1 µM (inactive)
- GI50 (SK-MEL-2): > 100 µM (inactive)
- GI50 (SK-MEL-5): 32.4 µM (inactive)
- GI50 (SK-OV-3): 41 µM (inactive)
- GI50 (SN12C): > 100 µM (inactive)
- GI50 (SNB-19): 94.4 µM (inactive)
- GI50 (SR): > 100 µM (inactive)
- GI50 (T47D): > 100 µM (inactive)
- GI50 (TK-10): > 100 µM (inactive)
- GI50 (U-251): > 100 µM (inactive)
- GI50 (UACC-257): > 100 µM (inactive)
- GI50 (UACC-62): > 100 µM (inactive)
- GI50 (UO-31): > 100 µM (inactive)

SMILES: COc1cc(OC)c(-n2[nH]c(=O)n(C)c2=O)c(OC)c1
- GI50 (786-0): > 100 µM (inactive)
- GI50 (A498): > 100 µM (inactive)
- GI50 (A549): > 100 µM (inactive)
- GI50 (BT-549): > 100 µM (inactive)
- GI50 (CAKI-1): > 100 µM (inactive)
- GI50 (CCRF-CEM): > 100 µM (inactive)
- GI50 (COLO 205): > 100 µM (inactive)
- GI50 (DU-145): > 100 µM (inactive)
- GI50 (EKVX): > 100 µM (inactive)
- GI50 (HCC 2998): > 100 µM (inactive)
- GI50 (HCT-116): > 100 µM (inactive)
- GI50 (HCT-15): > 100 µM
- GI50 (HL-60): > 100 µM (inactive)
- GI50 (HT-29): > 100 µM (inactive)
- GI50 (Hs-578T): > 100 µM (inactive)
- GI50 (IGROV-1): > 100 µM (inactive)
- GI50 (K562): > 100 µM (inactive)
- GI50 (KM12): > 100 µM (inactive)
- GI50 (LOX IMVI): > 100 µM (inactive)
- GI50 (M14): > 100 µM (inactive)
- GI50 (MCF7): > 100 µM (inactive)
- GI50 (MDA-MB-231): > 100 µM (inactive)
- GI50 (MDA-MB-435): > 100 µM (inactive)
- GI50 (MDA-N): > 100 µM (inactive)
- GI50 (MOLT-4): > 100 µM (inactive)
- GI50 (Malme-3M): > 100 µM (inactive)
- GI50 (NCI-H226): > 100 µM (inactive)
- GI50 (NCI-H23): > 100 µM (inactive)
- GI50 (NCI-H460): > 100 µM (inactive)
- GI50 (NCI-H522): 49.7 µM (inactive)
- GI50 (NCI/ADR-RES): > 100 µM (inactive)
- GI50 (OVCAR-3): > 100 µM (inactive)
- GI50 (OVCAR-4): > 100 µM (inactive)
- GI50 (OVCAR-5): > 100 µM (inactive)
- GI50 (OVCAR-8): > 100 µM (inactive)
- GI50 (PC-3): > 100 µM (inactive)
- GI50 (RPMI-8226): > 100 µM (inactive)
- GI50 (RXF 393): > 100 µM (inactive)
- GI50 (SF-268): > 100 µM (inactive)
- GI50 (SF-539): > 100 µM (inactive)
- GI50 (SK-MEL-28): > 100 µM (inactive)
- GI50 (SK-MEL-2): > 100 µM (inactive)
- GI50 (SK-OV-3): > 100 µM (inactive)
- GI50 (SN12C): > 100 µM (inactive)
- GI50 (SNB-19): > 100 µM (inactive)
- GI50 (SNB-75): > 100 µM (inactive)
- GI50 (SR): > 100 µM (inactive)
- GI50 (SW-620): > 100 µM (inactive)
- GI50 (T47D): > 100 µM (inactive)
- GI50 (TK-10): > 100 µM (inactive)
- GI50 (U-251): > 100 µM (inactive)
- GI50 (UACC-257): > 100 µM (inactive)
- GI50 (UACC-62): > 100 µM (inactive)
- GI50 (UO-31): > 100 µM (inactive)

SMILES: COC1=C2CC(C)CC(OC)C(OC(=O)CN)[C@H](C)/C=C(\C)C(OC(N)=O)C(OC)/C=C\C=C(/C)C(=O)NC(=CC1=O)C2=O (some centres not stated)
- GI50 (786-0): 0.429 µM (active)
- GI50 (A498): 12.1 µM (inactive)
- GI50 (A549): 9.73 µM (inactive)
- GI50 (ACHN): 0.446 µM (active)
- GI50 (BT-549): 1.09 µM (active)
- GI50 (CAKI-1): 1.46 µM (inactive)
- GI50 (CCRF-CEM): 0.299 µM (active)
- GI50 (COLO 205): 0.0562 µM (active)
- GI50 (DU-145): 1.45 µM (inactive)
- GI50 (EKVX): 0.838 µM (active)
- GI50 (HCC 2998): 1.9 µM (inactive)
- GI50 (HCT-116): 0.498 µM (active)
- GI50 (HCT-15): 0.899 µM
- GI50 (HL-60): 0.123 µM (active)
- GI50 (HOP-62): 0.942 µM (active)
- GI50 (HOP-92): 0.163 µM (active)
- GI50 (HT-29): 0.306 µM (active)
- GI50 (Hs-578T): 3.79 µM (inactive)
- GI50 (IGROV-1): 0.453 µM (active)
- GI50 (KM12): 1.24 µM (inactive)
- GI50 (LOX IMVI): 0.284 µM (active)
- GI50 (M14): 0.451 µM (active)
- GI50 (MCF7): 0.339 µM (active)
- GI50 (MDA-MB-231): 0.42 µM (active)
- GI50 (MDA-MB-435): 0.373 µM (active)
- GI50 (MDA-N): 0.443 µM (active)
- GI50 (MOLT-4): 0.344 µM (active)
- GI50 (Malme-3M): 0.351 µM (active)
- GI50 (NCI-H226): 10.4 µM (inactive)
- GI50 (NCI-H23): 0.369 µM (active)
- GI50 (NCI-H460): 6.14 µM (inactive)
- GI50 (NCI-H522): 0.159 µM (active)
- GI50 (NCI/ADR-RES): 9.62 µM (inactive)
- GI50 (OVCAR-3): 0.481 µM (active)
- GI50 (OVCAR-4): 0.708 µM (active)
- GI50 (OVCAR-5): 1.03 µM (active)
- GI50 (OVCAR-8): 0.94 µM (active)
- GI50 (PC-3): 1.1 µM (active)
- GI50 (RPMI-8226): 0.902 µM (active)
- GI50 (RXF 393): 0.507 µM (active)
- GI50 (SF-268): 3.44 µM (inactive)
- GI50 (SF-295): 3.84 µM (inactive)
- GI50 (SF-539): 1.24 µM (inactive)
- GI50 (SK-MEL-28): 0.161 µM (active)
- GI50 (SK-MEL-2): 3.84 µM (inactive)
- GI50 (SK-MEL-5): 0.855 µM (active)
- GI50 (SK-OV-3): 3.32 µM (inactive)
- GI50 (SN12C): 0.412 µM (active)
- GI50 (SNB-19): 6.55 µM (inactive)
- GI50 (SR): 0.321 µM (active)
- GI50 (SW-620): 0.065 µM (active)
- GI50 (T47D): 0.281 µM (active)
- GI50 (TK-10): 0.519 µM (active)
- GI50 (U-251): 1.58 µM (inactive)
- GI50 (UACC-257): 0.359 µM (active)
- GI50 (UACC-62): 0.468 µM (active)
- GI50 (UO-31): 0.716 µM (active)
